Data reported in patent publication US20110237599A1, “HETEROCYCLIC INHIBITORS OF HISTAMINE RECEPTORS FOR THE TREATMENT OF DISEASE” (Kalypsys, Inc., priority 2010, published 2011).

Columns and labels:
human H4 = molecular target: T1, human H4 (Homo sapiens, UniProt Q9H3N8); assay: In vitro histamine receptor cell-based assay (aequorin bioluminescence), H4 antagonism; settings: CHO-K1 cells expressing human H4, aequorin and Gα16; histamine at EC80; read-out: H4 Antagonist EC50
T1 construct: host or cells: CHO-K1
Protocol: (§1) The cell-based assays utilize an aequorin dependent bioluminescence signal. Doubly-transfected, stable CHO-K1 cell lines expressing human H1 or H4, mitochondrion-targeted aequorin, and (H4 only) human G protein Gα16 are obtained from Perkin-Elmer. Cells are maintained in F12 (Ham's) growth medium, containing 10% (vol./vol.) fetal bovine serum, penicillin (100 IU/mL), streptomycin (0.1 mg/mL), zeocin (0.25 mg/mL) and geneticin (0.40 mg/mL). Cell media components are from Invitrogen, Inc. One day prior to assay, the growth medium is replaced with the same, excluding zeocin and geneticin.
(§2) For assay preparation, growth medium is aspirated, and cells are rinsed with calcium-free, magnesium-free phosphate-buffered saline, followed by two to three minute incubation in Versene (Invitrogen, Inc.) at 37° C. Assay medium (DMEM:F12 [50:50], phenol-red free, containing 1 mg/mL protease-free bovine serum albumin) is added to collect the released cells, which are then centrifuged. The cell pellet is re-suspended in assay medium, centrifuged once more, and re-suspended in assay medium to a final density of 5×10^6 cells/mL. Coelenterazine-h dye (500 μM in ethanol) is added to a final concentration of 5 μM, and mixed immediately. The conical tube containing the cells is then wrapped with foil to protect the light-sensitive dye. The cells are incubated for four hours further at room temperature (approximately 21° C.) with end-over-end rotation to keep them in suspension.
(§3) Just before assay, the dye-loaded cells are diluted to 0.75×10^6 cells/mL (H1 receptor) or 1.5×10^6 cells/mL (H4 receptor) with additional assay medium. Cells are dispensed to 1536 well micro-titer plates at 3 μL/well. To assay receptor antagonism, 60 nl of 100× concentration test compounds in 100% dimethyl sulfoxide (DMSO) are dispensed to the wells, one compound per well, by passive pin transfer, and the plates are incubated for 15 minutes at room temperature. Assay plates are then transferred to a Lumilux bioluminescence plate reader (Perkin-Elmer) equipped with an automated 1536 disposable tip pipette. The pipette dispenses 3 μL/well of agonist (histamine, at twice the final concentration, where final concentration is a previously determined EC80) in assay medium, with concurrent bioluminescence detection. […]
(§4) CCD image capture on the Lumilux includes a 5 second baseline read prior to agonist addition, and generally a 40 second read per plate after agonist addition. A decrease in bioluminescence signal (measured either as area-under-the-curve, or maximum signal amplitude minus minimum signal amplitude) correlates with receptor antagonism in a dose dependent manner. […] Efficacy is measured as a percentage of positive control activity.

human H1 = molecular target: T2, human H1 (Homo sapiens, UniProt P35367); assay: In vitro histamine receptor cell-based assay (aequorin bioluminescence), H1 antagonism; settings: CHO-K1 cells expressing human H1 and aequorin; histamine at EC80; read-out: H1 Antagonist EC50
T2 construct: host or cells: CHO-K1
Protocol: as §1, §2, §3, §4

T2 sequence (P35367 whole entry): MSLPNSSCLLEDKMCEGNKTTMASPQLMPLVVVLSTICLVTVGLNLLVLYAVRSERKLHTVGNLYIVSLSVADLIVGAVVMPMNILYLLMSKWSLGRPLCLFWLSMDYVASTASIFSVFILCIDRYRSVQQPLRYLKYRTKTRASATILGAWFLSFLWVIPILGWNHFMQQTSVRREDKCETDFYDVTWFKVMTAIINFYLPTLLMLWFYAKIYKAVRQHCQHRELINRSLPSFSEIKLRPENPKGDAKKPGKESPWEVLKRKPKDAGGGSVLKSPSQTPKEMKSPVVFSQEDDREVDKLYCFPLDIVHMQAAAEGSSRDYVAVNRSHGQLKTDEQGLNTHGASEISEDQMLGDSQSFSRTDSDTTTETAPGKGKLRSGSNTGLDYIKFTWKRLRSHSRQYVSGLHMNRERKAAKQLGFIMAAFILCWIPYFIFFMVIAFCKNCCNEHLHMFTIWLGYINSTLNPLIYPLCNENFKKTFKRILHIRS

Row | EC50 (human H4) | EC50 (human H1) | SMILES
1 | ≤ 10 µM | > 10 µM | Cc1nc2c3cc(Cl)sc3nc(N3CCN(C)CC3)n2n1 [Example 1, 8-chloro-2-methyl-5-(4-methylpiperazin-1-yl)thieno[3,2-e][1,2,4]triazolo[1,5-c]pyrimidine]
2 | ≤ 10 µM | > 10 µM | Cc1nc2c3cc(Cl)sc3nc(N3CCNCC3)n2n1 [Example 2, 8-chloro-2-methyl-5-(piperazin-1-yl)thieno[3,2-e][1,2,4]-triazolo[1,5-c]pyrimidine]
3 | ≤ 10 µM | > 10 µM | Cc1nc2c3sc(Cl)cc3nc(N3CCN(C)CC3)n2n1 [Example 3, 8-chloro-2-methyl-5-(4-methylpiperazin-1-yl)thieno[2,3-e][1,2,4]triazolo[1,5-c]pyrimidine]
4 | > 10 µM | > 10 µM | Cc1nc2c3sc(Cl)cc3nc(N3CCNCC3)n2n1 [Example 4, 8-chloro-2-methyl-5-(piperazin-1-yl)thieno[2,3-e][1,2,4]triazolo[1,5-c]pyrimidine]
